Among the data in ChEMBL document CHEMBL1781926, “Synthesis of 1-naphtylpiperazine derivatives as serotoninergic ligands and their evaluation as antiproliferative agents” (Eur J Med Chem, 2011) are Activity values, retold here.

Assay [1] has as its system PC-3. Kind of assay: Cell cycle arrest in human PC3 cells assessed as accumulation at S phase at 15 uM after 72 hrs using propidium iodide staining by flow cytometry (reference value: 37.73 %). In kind it is functional.
Assay [2] concerns PC-3. The assay can be described thus: Cell cycle arrest in human PC3 cells assessed as accumulation at G1 phase at 15 uM after 48 hrs using propidium iodide staining by flow cytometry (reference value: 54.14 %). In kind it is functional. (Flow cytometry measures light scatter and fluorescence of single cells or particles in a stream.)

In the case of `O=c1c2ccccc2nnn1CCCN1CCN(c2cccc3ccccc23)CC1`, the Activity is on record as 28.24% with PC-3 [1] and 44.13% in the assay with PC-3 [2].

Consider `O=c1c2ccccc2nnn1CCN1CCN(c2cccc3ccccc23)CC1`, for which the figures for the Activity with PC-3 [1] and in the assay on PC-3 [2] were 29.95% and 41.36%, respectively.
